Patent US8598202B2, “Aryl-hydroxyethylamino-pyrimidines and triazines as modulators of fatty acid amide hydrolase” (Janssen Pharmaceutica NV, priority 2008, dated 2013)
Structures can show the parent of a compound that is named as a salt. Where two headings read alike, the source gives them in different places.

How the values were obtained:
[1] = molecular target: T1, FAAH (Homo sapiens, UniProt O00519); test: Assay Method 1: FAAH assay, 3H-anandamide hydrolysis in homogenate of T84 cells or SK-N-MC cells transfected with human FAAH
T1 sequence (O00519 1-579): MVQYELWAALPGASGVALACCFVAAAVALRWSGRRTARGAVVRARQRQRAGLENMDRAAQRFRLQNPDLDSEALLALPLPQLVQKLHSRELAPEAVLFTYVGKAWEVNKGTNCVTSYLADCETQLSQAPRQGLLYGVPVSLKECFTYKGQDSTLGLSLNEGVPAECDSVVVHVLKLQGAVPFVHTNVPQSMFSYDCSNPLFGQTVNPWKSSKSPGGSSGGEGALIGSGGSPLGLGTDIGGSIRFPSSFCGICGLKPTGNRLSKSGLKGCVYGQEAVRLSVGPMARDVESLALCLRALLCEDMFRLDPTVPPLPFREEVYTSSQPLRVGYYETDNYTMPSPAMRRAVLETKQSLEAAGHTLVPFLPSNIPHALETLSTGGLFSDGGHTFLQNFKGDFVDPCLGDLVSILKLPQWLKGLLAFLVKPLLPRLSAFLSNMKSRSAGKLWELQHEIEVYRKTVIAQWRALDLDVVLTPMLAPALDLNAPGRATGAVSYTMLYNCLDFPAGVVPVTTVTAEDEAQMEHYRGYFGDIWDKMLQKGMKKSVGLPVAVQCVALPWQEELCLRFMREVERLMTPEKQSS

[2] = molecular target: T2, Rat FAAH-1 (Rattus norvegicus, UniProt P97612); test: Assay Method 2: rat FAAH-1 assay, 3H-anandamide hydrolysis in homogenate of SK-N-MC cells transfected with rat FAAH
T2 sequence (P97612 1-579): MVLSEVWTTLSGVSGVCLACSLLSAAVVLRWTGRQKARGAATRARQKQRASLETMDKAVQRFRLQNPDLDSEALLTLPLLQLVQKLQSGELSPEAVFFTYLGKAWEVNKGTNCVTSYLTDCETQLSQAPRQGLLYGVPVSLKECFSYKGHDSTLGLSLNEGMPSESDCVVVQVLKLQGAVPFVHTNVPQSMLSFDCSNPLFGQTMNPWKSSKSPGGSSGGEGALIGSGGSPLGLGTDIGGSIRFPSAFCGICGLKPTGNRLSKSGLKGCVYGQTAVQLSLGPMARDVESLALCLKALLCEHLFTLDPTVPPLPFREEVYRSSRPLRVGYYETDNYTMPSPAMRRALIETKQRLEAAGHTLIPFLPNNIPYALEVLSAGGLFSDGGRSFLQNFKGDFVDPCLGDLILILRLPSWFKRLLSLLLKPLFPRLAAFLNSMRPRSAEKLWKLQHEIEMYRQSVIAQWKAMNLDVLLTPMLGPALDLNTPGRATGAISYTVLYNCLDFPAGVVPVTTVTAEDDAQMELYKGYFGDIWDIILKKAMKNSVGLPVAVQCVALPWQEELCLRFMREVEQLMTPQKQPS
Procedure: The assay mixture consisted of 50 μL of the cell homogenate, 10 μL of the test compound, and 40 μL of anandamide [1-^3H-ethanolamine] (^3H-AEA, Perkin-Elmer, 10.3 Ci/mmol), which was added last, for a final tracer concentration of 80 nM. The reaction mixture was incubated at rt for 1 h. During the incubation, 96-well Multiscreen filter plates (catalog number MAFCNOB50; Millipore, Bedford, Mass., USA) were loaded with 25 μL of activated charcoal (Multiscreen column loader, catalog number MACL09625, Millipore) and washed once with 100 μL of MeOH. […] After the 1 h incubation, 60 μL of the reaction mixture were transferred to the charcoal plates, which were then assembled on top of the DYNEX plates using Centrifuge Alignment Frames (catalog number MACF09604, Millipore). The unbound labeled ethanolamine was centrifuged through to the bottom plate (5 min at 2000 rpm), which was preloaded with the scintillant, as described above. The plates were sealed and left at rt for 1 h before counting on a Hewlett Packard TopCount.

| Compound | IC50 [1] [nM] | IC50 [2] [nM] | IC50 ([1]; read-out: Assay 1 IC50, Table 2, Comparative Examples, human FAAH) [nM] | IC50 ([2]; read-out: Assay 2 IC50, Table 2, Comparative Examples, rat FAAH-1) [nM] |
| --- | --- | --- | --- | --- |
| OC(CNc1cc(-c2ccc(C(F)(F)F)c(Cl)c2)ncn1)c1ccccc1OC(F)F (centres unmarked) [Example 189, 2-({6-[3-Chloro-4-(trifluoromethyl)phenyl]pyrimidin-4-yl}amino)-1-[2-(difluoromethoxy)phenyl]ethanol] | 170 | 150 | – | – |
| OC(CNc1cc(-c2ccc(C(F)(F)F)c(Cl)c2)ncn1)c1cc(C(F)(F)F)cc(C(F)(F)F)c1 (centres unmarked) [Example 217, 1-[3,5-Bis(trifluoromethyl)phenyl]-2-({6-[3-chloro-4-(trifluoromethyl)phenyl]pyrimidin-4-yl}amino)ethanol] | > 10000 | 8000 | – | – |
| Cc1ccc2sc(-c3cc(NC[C@H](O)c4ccccc4)ncn3)cc2c1 [Example 56, (1R)-2-{[6-(5-Methyl-1-benzothiophen-2-yl)pyrimidin-4-yl]amino}-1-phenylethanol] | 2 | 40 | – | – |
| Cc1nc(NC[C@H](O)c2ccccc2)cc(-c2ccc(Cl)c(Cl)c2)n1 [Example 155, (1R)-2-{[6-(3,4-Dichlorophenyl)-2-methylpyrimidin-4-yl]amino}-1-phenylethanol] | 60 | 270 | – | – |
| O[C@@H](CNc1cc(-c2ccc(OCC3CC3)cc2)ncn1)c1ccccc1 [Example 32, (1R)-2-({6-[4-(Cyclopropylmethoxy)phenyl]pyrimidin-4-yl}amino)-1-phenylethanol trifluoroacetic acid salt] | 92 | 1000 | – | – |
| CCOc1ccc(-c2cc(NCC(O)c3ccccc3)ncn2)cc1 (centres unmarked) [Example 11, 2-({6-[4-(Ethyloxy)phenyl]pyrimidin-4-yl}amino)-1-phenylethanol] | 34 | 375 | – | – |
| CSc1ccc(C(O)CNc2cc(-c3ccc(C(F)(F)F)c(Cl)c3)ncn2)cc1 (centres unmarked) [Example 167, 2-({6-[3-Chloro-4-(trifluoromethyl)phenyl]pyrimidin-4-yl}amino)-1-[4-(methylsulfanyl)phenyl]ethanol] | 60 | 20 | – | – |
| OC(CNc1cc(-c2ccc(Cl)c(Cl)c2)ncn1)c1ccccc1 (centres unmarked) [Example 8, 2-{[6-(3,4-Dichlorophenyl)pyrimidin-4-yl]amino}-1-phenylethanol] | 74 | 168 | – | – |
| O[C@@H](CNc1cc(-c2ccc3nonc3c2)ncn1)c1ccccc1 [Example 45, (1R)-2-{[6-(2,1,3-Benzoxadiazol-5-yl)pyrimidin-4-yl]amino}-1-Phenylethanol trifluoroacetic acid salt] | 150 | 600 | – | – |
| OC(CNc1cc(-c2ccc(C(F)(F)F)c(Cl)c2)ncn1)c1csc2ccccc12 (centres unmarked) [Example 201, 1-(1-benzothiophen-3-yl)-2-({6-[3-chloro-4-(trifluoromethyl)phenyl]pyrimidin-4-yl}amino)ethanol] | 170 | 170 | – | – |
| OC(CNc1cc(-c2ccc(C(F)(F)F)c(Cl)c2)ncn1)c1ccc(F)c(Cl)c1 (centres unmarked) [Example 134, 1-(3-Chloro-4-fluorophenyl)-2-({6-[3-chloro-4-(trifluoromethyl)phenyl]pyrimidin-4-yl}amino)ethanol trifluoroacetic acid salt] | 27 | 19 | – | – |
| CC(=O)Nc1cccc(-c2cc(NCC(O)c3ccccc3)ncn2)c1 (centres unmarked) [CE2, N-{3-[6-(2-Hydroxy-2-phenyl-ethylamino)-pyrimidin-4-yl]-phenyl}-acetamide, reference compound] | – | – | > 10000 | > 10000 |
| OC(CNc1cc(-c2ccc(C(F)(F)F)c(Cl)c2)ncn1)c1ccc(-c2ccccc2)cc1 (centres unmarked) [Example 195, 1-Biphenyl-4-yl-2-({6-[3-chloro-4-(trifluoromethyl)phenyl]pyrimidin-4-yl}amino)ethanol] | 10 | 400 | – | – |
| Cc1ccc(-c2cc(NC[C@H](O)c3ccccc3)ncn2)cc1F [Example 20, (1R)-2-{[6-(3-Fluoro-4-methylphenyl)pyrimidin-4-yl]amino}-1-phenylethanol trifluoroacetic acid salt] | 32 | 181 | – | – |
| O[C@@H](CNc1cc(-c2cc3cc(C(F)(F)F)ccc3s2)ncn1)c1ccccc1 [Example 184, (1R)-1-Phenyl-2-({6-[5-(trifluoromethyl)-1-benzothiophen-2-yl]pyrimidin-4-yl}amino)ethanol trifluoroacetic acid salt] | 31 | 160 | – | – |
| O[C@@H](CNc1cc(-c2ccc(C(F)(F)F)c(Cl)c2)ncn1)c1ccc(F)cc1 [Example 62, (1R)-2-({6-[3-Chloro-4-(trifluoromethyl)phenyl]ivrimidin-4-yl}amino)-1-(4-fluorophenyl)ethanol] | 2 | 3 | – | – |
| O[C@@H](CNc1cc(-c2ccc(C(F)(F)F)c(Cl)c2)nc(NC2CC2)n1)c1ccccc1 [Example 162, (1R)-2-({6-[3-Chloro-4-(trifluoromethyl)phenyl]-2-(cyclopropylamino)pyrimidin-4-yl}amino)-1-phenylethanol trifluoroacetic acid salt] | 570 | 130 | – | – |
| OC(CNc1cc(-c2ccc(C(F)(F)F)c(Cl)c2)ncn1)c1ccc(-c2ccccn2)cc1 (centres unmarked) [Example 193, 2-({6-[3-Chloro-4-(trifluoromethyl)phenyl]pyrimidin-4-yl}amino)-1-(4-Pyridin-2-ylphenyl)ethanol] | 40 | 850 | – | – |
| N#Cc1cccc(C(O)CNc2cc(-c3ccc(C(F)(F)F)c(Cl)c3)ncn2)c1 (centres unmarked) [Example 206, 3-[2-({6-[3-Chloro-4-(trifluoromethyl)phenyl]pyrimidin-4-yl}amino)-1-hydroxyethyl]benzonitrile] | 25 | 15 | – | – |
| OC(CNc1cc(-c2ccc(C(F)(F)F)c(Cl)c2)ncn1)c1ccc(-c2ccccn2)s1 (centres unmarked) [Example 209, 2-({6-[3-Chloro-4-(trifluoromethyl)phenyl]pyrimidin-4-yl}amino)-1-(5-pyridin-2-ylthiophen-2-yl)ethanol] | 12 | 36 | – | – |
| OC(CNc1cc(-c2ccc3ccccc3c2)ncn1)c1ccccc1 (centres unmarked) [Example 235, 2-[(6-Naphthalen-2-ylpyrimidin-4-yl)amino]-1-phenylethanol] | 21 | 324 | – | – |
| N#Cc1ccc(C(O)CNc2cc(-c3ccc(C(F)(F)F)c(Cl)c3)ncn2)cc1 (centres unmarked) [Example 191, 4-[2-({6-[3-Chloro-4-(trifluoromethyl)phenyl]pyrimidin-4-yl}amino)-1-hydroxyethyl]benzonitrile] | 19 | 7 | – | – |
| OC(CNc1cc(-c2ccc(C(F)(F)F)c(Cl)c2)ncn1)c1cc(-c2ccc(Cl)cc2)no1 (centres unmarked) [Example 214, 1-[3-(4-Chloro-phenyl)-isoxazol-5-yl]-2-[6-(3-chloro-4-trifluoromethyl-Phenyl)-pyrimidin-4-ylamino]-ethanol] | 36 | 160 | – | – |
| N#Cc1ccc(-c2cc(NC[C@H](O)c3ccccc3)ncn2)cc1F [Example 88, 2-Fluoro-4-(6-{[(2R)-2-hydroxy-2-phenylethyl]amino}pyrimidin-4-yl)benzonitrile trifluoroacetic acid salt] | 65 | 33 | – | – |
| C[C@@H]([C@H](O)c1ccccc1)N(C)c1cc(-c2ccc(OC(F)(F)F)cc2)ncn1 [Example 121, (1R,2S)-2-[Methyl(6-{4-[(trifluoromethyl)oxy]phenyl}pyrimidin-4-yl)amino]-1-phenylpropan-1-ol] | 580 | 3000 | – | – |
